This is an account of results in patent publication US6136810A, “Pyrido[2,3-D]pyrimidine derivatives and pharmaceutical compositions thereof” (priority 1995, dated 2000).

Assay [1] addresses type IV phosphodiesterase. Nature of the assay: Type IV phosphodiesterase inhibition activity measuring test (in vitro). Format: biochemical. The following applies: human granulocyte type IV PDE, 1 μM cAMP, 30° C. As for the experimental part: The following assay was used for the evaluation of the capability of the compounds of the present invention to inhibit type IV phosphodiesterase.
1) Physiological saline (200 ml) supplemented with dextran (3%) was added to 500 ml of heparinized peripheral blood of a healthy person and incubated at 37° C. for 40 minutes to effect precipitation of erythrocytes. The supernatant after precipitation of erythrocytes was recovered and centrifuged once, and the resulting precipitate was suspended in buffer A (140 mM NaCl, 5 mM KCl, 5 mM glucose and 10 mM HEPES, pH 7.4), overlaid on a solution for density gradient centrifugation use (Ficoll solution) and then centrifuged at room temperature for 40 minutes at 450×g, thereby separating monocyte fraction and granulocyte fraction. The granulocyte fraction was washed once with buffer B (140 mM NaCl, 5 mM KCl; 1 mM CaCl2, 1 mM MgCl2, 5 mM glucose and 10 mM HEPES, pH 7.4) and suspended in buffer C (20 mM Bis-Tris, 5 mM dithioerythritol, 2 mM EGTA and 50 mM sodium acetate, pH 6.5) containing a protease inhibitor (50 μM phenyl-methyl-sulfonyl-fluoride, 5 μM pepstatin A, 40 μM leupeptin, 20 μM aprotinin or 2 mM benzamidine) and then the cells were disrupted using polytron and sonicator and subjected to ultracentrifugation (4° C., 100,000×g, 60 minutes) to give a soluble fraction.
2) The thus obtained soluble fraction was applied to a column of 1.6×10 cm packed with Q Sepharose which had been equilibrated with buffer C. Next, the column was washed with 300 ml of buffer C to remove non-absorbed protein. Phosphodiesterase was eluted with 200 ml of buffer C having 0.05 to 1.25 M linear gradient of sodium acetate to collect 40 fractions each containing 5.0 ml eluate. Each fraction was checked for cAMP- and cGMP-metabolizing phosphodiesterase activities. Fractions having no cGMP- but cAMP-metabolizing activity and showing disappearance of the metabolizing activity by 10 μM rolipram (a type IV phosphodiesterase selective inhibitor) were collected to be used as a stock solution for the examination of type IV phosphodiesterase inhibition activity.
3) A predetermined amount of each compound to be tested was subjected to 10 minutes of reaction at 30° C. in a reaction mixture containing 40 mM Tris-HCl (pH 8.0), 5 mM MgCl2, 4 mM 2-mercaptoethanol, 0.3 μM cilostamide (an III type phosphodiesterase selective inhibitor), 1 μM cAMP, 10 nM ^3 H-cAMP and the type IV phosphodiesterase stock solution. The reaction solution was boiled at 90° C. for 1 minute, cooled in an ice bath, mixed with 1 unit of 5'-nucleotidase and then subjected to 10 minutes of reaction at 30° C., and the reaction was stopped by the addition of 1 ml of methanol. The reaction solution was passed through a Dowex 1×8 column to adsorb un-hydrolyzed material and then the radioactivity was measured.
4) Concentration of each compound to be tested which inhibits 50% of the metabolic activity of type IV phosphodiesterase was calculated and expressed as IC50. Test results: Results of the measurement of the activity of the compounds of the present invention to inhibit type IV PDE are shown in Tables 1 and 2, together with the results of the compounds illustratively disclosed in the aforementioned U.S. Patent and similar comparative compounds which were separately synthesized.

The subject of assay [2] is I, II, III and V type phosphodiesterase isozymes. Kind of assay: Activity to inhibit various phosphodiesterase isozymes (selectivity for type IV). The note with it: IC50 ratio vs types I. Format: biochemical, rat (types I, III); human (type V). The source says: [A] In order to evaluate selectivity of the compounds of the present invention for type IV phosphodiesterase, I, II, III and V type phosphodiesterase isozymes were purified in the following manner.
1) Solutions containing various phosphodiesterase (I, II and III types) isozymes were purified from rat heart muscle cells in the following manner. Under ether anesthesia, Wistar rat was subjected to thoracotomy to excise the heart. After removing blood by perfusion with physiological saline supplemented with heparin (1 unit/ml), the heart was finely chopped with scissors.
2) Solutions containing various phosphodiesterase isozymes were obtained from the thus obtained soluble fraction in the following manner. […] Each fraction was checked for cAMP- and cGMP-metabolizing phosphodiesterase activities. […] These fractions were separately collected to be used as phosphodiesterase (types I, II and III) stock solutions for the examination of selectivity.
3) A solution containing type V phosphodiesterase was prepared from peripheral blood of a healthy person in the following manner. A 200 ml portion of physiological saline supplemented with dextran (3%) was added to 500 ml of heparinized peripheral blood and incubated at 37° C. for 40 minutes to effect precipitation of erythrocytes. The supernatant fluid after precipitation of erythrocytes was recovered and centrifuged once, and the resulting precipitate was suspended in buffer B (140 mM NaCl, 5 mM KCl, 5 mM glucose and 10 mM HEPES, pH 7.4), overlaid on a solution for density gradient centrifugation use (Ficoll solution) and then centrifuged at room temperature for 40 minutes at 450×g, thereby separating monocyte fraction and granulocyte fraction.
Each fraction was checked for cAMP- and cGMP-metabolizing phosphodiesterase activities. Fractions having only cGMP metabolizing activity were collected to be used as the type V phosphodiesterase stock solution.
[B] Inhibitory activities were measured using the thus obtained stock solutions of various phosphodiesterase isozymes.
After completion of the reaction, the reaction mixture was boiled at 90° C. for 1 minute, cooled in an ice bath, mixed with 1 unit of 5'-nucleotidase and then subjected to 10 minutes of reaction at 30° C., and the reaction was stopped by adding 1 ml of methanol. The reaction solution was passed through a Dowex 1×8 column to effect adsorption of un-metabolized cAMP or cGMP and then radioactivity in the eluate was measured using a scintillation counter.

Where [3] appears, read: Table 2, read-out: Type IV PDE Inhibition IC50.
[4] abbreviates: Table 1, read-out: Type IV PDE inhibition activity IC50.

Molecules are shown by their SMILES. Where two headings read alike, the source gives them in different places.

One may read the IC50 as the concentration needed to halve the response being measured. Turning to `CCc1ccc2c(-c3cccc(Cl)c3)nc(=O)n(CC)c2n1` [Example 1, 4-(3-chlorophenyl)-1,7-diethylpyrido[2,3-d]pyrimidin-2(1H)-one], in assay [1] (setting [3]), the IC50 stood at 0.81 nM. Also, the “selectivity in inhibition activity against type IV PDE over the other types of PDE” value (“selectivity in inhibition activity” below) in assay [2] is recorded as no less than 1000 times. As for `CCc1ccc2c(-c3cccc(Br)c3)nc(=O)n(CC)c2n1` [Example 2, 4-(3-Bromophenyl)-1,7-diethylpyrido[2,3-d)pyrimidin-2(1H)-one], in assay [1] (setting [3]), the IC50 came to 1.15 nM. As for `CCn1c(=O)nc(-c2cccc(Cl)c2)c2ccc(C)nc21` [Example 3, 4-(3-Chlorophenyl)-1-ethyl-7-methylpyrido[2,3-d]pyrimidin-2(1H)-one], the IC50 in assay [1] (setting [3]) is 2.32 nM. In addition, the “selectivity in inhibition activity” value in assay [2] was no less than 1000 times. The corresponding values for `CCn1c(=O)nc(-c2cccc(Br)c2)c2ccc(C)nc21` [Example 4, 4-(3-Bromophenyl)-1-ethyl-7-methylpyrido[2,3-d]pyrimidin-2(1H)-one] are 1.45 nM and no less than 1000 times. As to `CCn1c(=O)nc(-c2cccc(C)c2)c2ccc(C)nc21` [Example 5, 1-Ethyl-7-methyl-4-(3-methylphenyl)-pyrido[2,3-d]pyrimidin-(1H)-one], the IC50 in assay [1] (setting [3]) came out at 3.5 nM.

Take `CCc1ccc2c(-c3cccc(C)c3)nc(=O)n(CC)c2n1` [Example 6, 1,7-Diethyl-4-(3-methylphenyl)pyrido[2,3-d]pyrimidin-2(1H)-one]: in assay [1] (setting [3]), the IC50 was 3.7 nM. As to `CCn1c(=O)nc(-c2cccc(Cl)c2)c2ccc(C(C)O)nc21` (centres unmarked) [Example 19, 4-(3-chlorophenyl)-1-ethyl-7-(1-hydroxyethyl)pyrido[2,3-d]pyrimidin-2(1H)-one], the IC50 in assay [1] (setting [4]) is 8.08 nM. For the same compound, the “selectivity in inhibition activity” value in assay [2] was no less than 1000 times.

For the compound `CCn1c(=O)nc(-c2cccc(Cl)c2)c2ccc(C3CC3)nc21` [Example 22, 4-(3-Chlorophenyl)-7-cyclopropyl-1-ethylpyrido[2,3-d]pyrimidin-2(1H)-one], the IC50 in assay [1] (setting [4]) came out at 7.8 nM.

In the case of `Cc1cccc(-c2nc(=O)n(CC3CC3)c3nc(C)ccc23)c1` [Example 33, 1-Cyclopropylmethyl-7-methyl-4-(3-methylphenyl)pyrido[2,3-d]pyrimidin-2(1H)-one], in assay [1] (setting [4]), the IC50 amounted to 6.19 nM.

Take `CCc1ccc2c(C3CCCCC3)nc(=O)n(CC)c2n1` [Example 34, 4-Cyclohexyl-1,7-diethylpyrido[2,3-d]pyrimidin-2(1H)-one]: in assay [1] (setting [4]), the IC50 was determined as 1.47 nM.

In the case of `CCn1c(=O)nc(-c2cccc(Cl)c2)c2ccc(C=NO)nc21` [Example 36, 4-(3-chlorophenyl)-1-ethyl-7-hydroxyiminomethylpyrido[2,3-d]pyrimidin-2(1H)-one], the IC50 in assay [1] (setting [4]) stood at 0.93 nM.

Regarding `CCn1c(=O)nc(-c2cccc([N+](=O)[O-])c2)c2ccc(C)nc21` [Example 37, 1-Ethyl-7-methyl-4-(3-nitrophenyl)-pyrido[2;3-d]pyrimidin-2(1H)-one], the IC50 in assay [1] (setting [4]) amounted to 4.75 nM.

As for `CCn1c(=O)nc(-c2cccc(Cl)c2)c2ccc(C(C)SC(C)=O)nc21` (centres unmarked) [Example 40, 7-(1-acetylthioethyl)-4-(3-chlorophenyl)-1-ethylpyrido[2,3-d]pyrimidin-2(1H)-one], in assay [1] (setting [4]), the IC50 came out at 5.79 nM. With `CCc1ccc2c(-c3cccc(Cl)c3)nc(=S)n(CC)c2n1` [Example 41, 4-(3-Chlorophenyl)-1,7-diethylpyrido[2,3-d]pyrimidin-2(1H)-thione], the IC50 in assay [1] (setting [4]) came out at 0.85 nM.

As to `CCn1c(=O)nc(-c2ccccc2Cl)c2cccnc21` [compound 1, 4-(2-chlorophenyl)-1-ethylpyrido[2,3-d]pyrimidin-2(1H)-one, reference compound], the IC50 in assay [1] (setting [3]) worked out at 2840 nM. Still for that read-out and setting: as for `CC(C)n1c(=O)nc(-c2ccc(Cl)cc2)c2cccnc21` [compound 2, reference compound], the figure is greater than 3000 nM; as for `CCn1c(=O)nc(-c2ccc(Cl)cc2)c2cccnc21` [compound 3, 4-(4-chlorophenyl)-1-ethylpyrido[2,3-d]pyrimidin-2(1H)-one, reference compound], greater than 3000 nM. In the case of `CC(C)n1c(=O)nc(-c2ccc(Cl)c(Cl)c2)c2cccnc21` [compound 4, reference compound], the IC50 in assay [1] (setting [3]) is greater than 3000 nM. Turning to `CCn1c(=O)nc(-c2ccc(Cl)c(Cl)c2)c2cccnc21` [compound 5, 4-(3,-4-dichlorophenyl)-1-ethylpyrido[2,3-d]pyrimidin-2(1H)-one, reference compound], the IC50 in assay [1] (setting [3]) was greater than 3000 nM. As for `CC(C)n1c(=O)nc(-c2cccc(Cl)c2)c2cccnc21` [compound 6, 4-(3-chlorophenyl)-1-isopropylpyrido[2,3-d]pyrimidin-2(1H)-one, reference compound], in assay [1] (setting [3]), the IC50 was determined as 803 nM.

Consider `CCn1c(=O)nc(-c2cccc(Cl)c2)c2cccnc21` [compound 7, 4-(3-chlorophenyl)-1-ethylpyrido[2,3-d]pyrimidin-2(1H)-one, reference compound], for which the IC50 in assay [1] (setting [3]) amounted to 308 nM. Regarding `CCn1c(=O)nc(-c2cccc(C)c2)c2cccnc21` [compound 8, 4-(3-methylphenyl)-1-ethylpyrido[2,3-d]pyrimidin-2(1H)-one, reference compound], in assay [1] (setting [3]), the IC50 was determined as 612 nM.
